According to patent publication US6337417B1, “N-phenyltetrahydrophthalamic acid derivatives, methods of producing same, and herbicides containing same as effective components” (Central Glass Co., Ltd., priority 1994, dated 2002):

Columns and labels:
Assay type in all cases: in vivo
Parameters in all cases: key: 5: completely killed; 4: seriously injured; 3: considerably injured; 2: somewhat injured; 1: slightly injured; 0: not injured (normally grown)
[1] = tested on: cockspur (Panicum crus-galli); experiment: Experiment 8 foliage treatment: cockspur; settings: foliage spray of wettable powder suspension, evaluated 4 weeks after treatment
Method: (§1) Upon seedling stage (two- or three-leaved stage) of rice, cockspur (Panicum crus-galli), garden radish, aobiyu (slender amaranth, Amaranthus viridis) and mehishiba (henry crabgrass, Digitaria cliaris) which were grown on a cultivated soil put in pots of 1/15500 ares, a selected compound obtained in a manner analogous to Example 14, in suspended wettable powder, was sprayed to each plant. After that, the pots were kept in a glass chamber to allow each plant to grow, and after the lapse of 4 weeks from the treatment with the selected compounds the herbicidal effects were evaluated. The evaluation of the herbicidal effects was similarly conducted as to that of Experiment 1.

[2] = tested on: onamomi (heartleaf cocklebur, Xanthium strumarium); experiment: Experiment 9 foliage treatment: onamomi; settings: foliage spray of wettable powder suspension, evaluated 4 weeks after treatment
Method: as §1, with “ichibi (velvetleaf, Abutilon theophrasti), onamomi (heartleaf cocklebur, Xanthium strumarium) (4L stage), noasagao (blue morningglory, Ipomoea indica)” for “rice, cockspur (Panicum crus-galli), garden radish, aobiyu (slender amaranth, Amaranthus viridis)”, “ooinutade (pale smartweed, Persicaria lapathifolia)” for “mehishiba (henry crabgrass, Digitaria cliaris)”, “1/8850” for “1/15500”, “as” for “as to”

[3] = tested on: rice; experiment: Experiment 8 foliage treatment: rice; settings: foliage spray of wettable powder suspension, evaluated 4 weeks after treatment
Method: as §1

[4] = tested on: aobiyu (slender amaranth, Amaranthus viridis); experiment: Experiment 8 foliage treatment: aobiyu; settings: foliage spray of wettable powder suspension, evaluated 4 weeks after treatment
Method: as §1

[5] = tested on: ichibi (velvetleaf, Abutilon theophrasti); experiment: Experiment 9 foliage treatment: ichibi; settings: foliage spray of wettable powder suspension, evaluated 4 weeks after treatment
Method: as §1, with “ichibi (velvetleaf, Abutilon theophrasti), onamomi (heartleaf cocklebur, Xanthium strumarium) (4L stage), noasagao (blue morningglory, Ipomoea indica)” for “rice, cockspur (Panicum crus-galli), garden radish, aobiyu (slender amaranth, Amaranthus viridis)”, “ooinutade (pale smartweed, Persicaria lapathifolia)” for “mehishiba (henry crabgrass, Digitaria cliaris)”, “1/8850” for “1/15500”, “as” for “as to”

[6] = tested on: garden radish; experiment: Experiment 8 foliage treatment: garden radish; settings: foliage spray of wettable powder suspension, evaluated 4 weeks after treatment
Method: as §1

[7] = tested on: paddy rice; experiment: Experiment 7 flooded soil treatment: injury to paddy rice; settings: evaluated 4 weeks after treatment
Description: (§2) Paddy soil (clay loam) was put into a pot so as to have a surface area of 1/15500 ares. Uniformly mixed seeds of several kinds of weeds, viz., nobie (barnyardgrass, Echinochloa spp.), broad-leaved weeds, hotarui (bulrush, Scirpus juncoides) and tamagayatsuri (small-flowered umbrellaplant, Cyperus difformis), were sown in the surface layer of the soil in each pot, and then paddy rice seedlings at the two- or three-leaved stage were transplanted into each pot to a depth of 2 cm, and water was fed into each pot so as to provide a 3 cm deep water layer on the soil surface. After 3 days, in other words at the initial stage of germination of nobie (barnyardgrass, Echinochloa spp.), a predetermined amount of a selected compound obtained in a manner analogous to Example 14 in the form of diluted aqueous solution was dropped into the water layer in each pot. After that, the pots were kept in a glass chamber to allow the paddy rice and the weeds to grow, and after the lapse of 4 weeks from the treatment with the selected compounds, the herbicidal effects and the degree of injury to the paddy rice were evaluated. The evaluation of the herbicidal effects was similarly conducted as that of Experiment 1.

[8] = tested on: broad-leaved weeds; experiment: Experiment 7 flooded soil treatment: broad-leaved weeds; settings: evaluated 4 weeks after treatment
Description: as §2

[9] = tested on: nobie (barnyardgrass, Echinochloa spp.); experiment: Experiment 7 flooded soil treatment: nobie; settings: evaluated 4 weeks after treatment
Description: as §2

[10] = tested on: hotarui (bulrush, Scirpus juncoides); experiment: Experiment 7 flooded soil treatment: hotarui; settings: evaluated 4 weeks after treatment
Description: as §2

[11] = tested on: ooinutade (pale smartweed, Persicaria lapathifolia); experiment: Experiment 9 foliage treatment: ooinutade; settings: foliage spray of wettable powder suspension, evaluated 4 weeks after treatment
Method: as §1, with “ichibi (velvetleaf, Abutilon theophrasti), onamomi (heartleaf cocklebur, Xanthium strumarium) (4L stage), noasagao (blue morningglory, Ipomoea indica)” for “rice, cockspur (Panicum crus-galli), garden radish, aobiyu (slender amaranth, Amaranthus viridis)”, “ooinutade (pale smartweed, Persicaria lapathifolia)” for “mehishiba (henry crabgrass, Digitaria cliaris)”, “1/8850” for “1/15500”, “as” for “as to”

[12] = tested on: noasagao (blue morningglory, Ipomoea indica); experiment: Experiment 9 foliage treatment: noasagao; settings: foliage spray of wettable powder suspension, evaluated 4 weeks after treatment
Method: as §1, with “ichibi (velvetleaf, Abutilon theophrasti), onamomi (heartleaf cocklebur, Xanthium strumarium) (4L stage), noasagao (blue morningglory, Ipomoea indica)” for “rice, cockspur (Panicum crus-galli), garden radish, aobiyu (slender amaranth, Amaranthus viridis)”, “ooinutade (pale smartweed, Persicaria lapathifolia)” for “mehishiba (henry crabgrass, Digitaria cliaris)”, “1/8850” for “1/15500”, “as” for “as to”

[13] = tested on: tamagayatsuri (small-flowered umbrellaplant, Cyperus difformis); experiment: Experiment 7 flooded soil treatment: tamagayatsuri; settings: evaluated 4 weeks after treatment
Description: as §2

[14] = tested on: mehishiba (henry crabgrass, Digitaria cliaris); experiment: Experiment 8 foliage treatment: mehishiba; settings: foliage spray of wettable powder suspension, evaluated 4 weeks after treatment
Method: as §1

SMILES	Herbicidal Effect cockspur ([1]; 40 g/10a)	Herbicidal Effect cockspur ([1]; 80 g/10a)	Herbicidal Effet onamomi ([2]; 4 g/10a)	Herbicidal Effet onamomi ([2]; 8 g/10a)	Herbicidal Effect rice ([3]; 40 g/10a)	Herbicidal Effect rice ([3]; 80 g/10a)	Herbicidal Effect aobiyu ([4]; 40 g/10a)	Herbicidal Effect aobiyu ([4]; 80 g/10a)	Herbicidal Effet ichibi ([5]; 4 g/10a)	Herbicidal Effet ichibi ([5]; 8 g/10a)	Herbicidal Effect garden radish ([6]; 40 g/10a)	Herbicidal Effect garden radish ([6]; 80 g/10a)	Injury of Paddy ([7]; 6.25 g/10a)	Injury of Paddy ([7]; 12.5 g/10a)	Herbicidal Effect broad-leaved weed ([8]; 6.25 g/10a)	Herbicidal Effect broad-leaved weed ([8]; 12.5 g/10a)	Herbicidal Effect nobie ([9]; 6.25 g/10a)	Herbicidal Effect nobie ([9]; 12.5 g/10a)	Herbicidal Effect hotarui ([10]; 6.25 g/10a)	Herbicidal Effect hotarui ([10]; 12.5 g/10a)	other results
C#CC(C)Oc1cc(N(C(=O)C2=C(C(=O)OC)CCCC2)C(=O)c2cccs2)c(F)cc1Cl (racemic) [compound 91, N-[4-chloro-2-fluoro-5-(1-methylproparzyloxy)phenyl]-N-(2-thiophenecarboxy)-3,4,5,6-tetrahydrophthalamic acid methyl ester]	1	1	4	5	1	1	5	5	5	5	5	5	0	0.5	5	5	5	5	4	5	Herbicidal Effet ooinutade ([11]; 4 g/10a): 5; Herbicidal Effet ooinutade ([11]; 8 g/10a): 5; Herbicidal Effet noasagao ([12]; 4 g/10a): 4; Herbicidal Effet noasagao ([12]; 8 g/10a): 5; Herbicidal Effect tamagayatsuri ([13]; 6.25 g/10a): 5; Herbicidal Effect tamagayatsuri ([13]; 12.5 g/10a): 5; Herbicidal Effect mehishiba ([14]; 40 g/10a): 1; Herbicidal Effect mehishiba ([14]; 80 g/10a): 1
C#CC(C)Oc1cc(N(C(=O)C2=C(C(=O)OCCCC)CCCC2)C(=O)c2ccsc2)c(F)cc1Cl (stereo not shown) [compound 102]	1	1	5	5	1	1	5	5	5	5	5	5	0.5	0.5	5	5	5	5	4	4	Herbicidal Effet ooinutade ([11]; 4 g/10a): 4; Herbicidal Effet ooinutade ([11]; 8 g/10a): 5; Herbicidal Effet noasagao ([12]; 4 g/10a): 4; Herbicidal Effet noasagao ([12]; 8 g/10a): 5; Herbicidal Effect tamagayatsuri ([13]; 6.25 g/10a): 5; Herbicidal Effect tamagayatsuri ([13]; 12.5 g/10a): 5; Herbicidal Effect mehishiba ([14]; 40 g/10a): 1; Herbicidal Effect mehishiba ([14]; 80 g/10a): 1
C#CC(C)Oc1cc(N(C(=O)C2=C(C(=O)OC)CCCC2)C(=O)c2ccsc2)c(F)cc1Cl (stereo not shown) [Compound No. 100]	1	1	5	5	1	1	5	5	5	5	5	5	0.5	0.5	5	5	5	5	5	5	Herbicidal Effet ooinutade ([11]; 4 g/10a): 5; Herbicidal Effet ooinutade ([11]; 8 g/10a): 5; Herbicidal Effet noasagao ([12]; 4 g/10a): 5; Herbicidal Effet noasagao ([12]; 8 g/10a): 5; Herbicidal Effect tamagayatsuri ([13]; 6.25 g/10a): 5; Herbicidal Effect tamagayatsuri ([13]; 12.5 g/10a): 5; Herbicidal Effect mehishiba ([14]; 40 g/10a): 1; Herbicidal Effect mehishiba ([14]; 80 g/10a): 1
C#CC(C)Oc1cc(N(C(=O)C2=C(C(=O)OC)CCCC2)C(=O)c2ccc(Cl)s2)c(F)cc1Cl (stereo not shown) [compound 97]	1	1	4	4	1	1	4	5	5	5	5	5	0	0	5	5	5	5	4	4	Herbicidal Effet ooinutade ([11]; 4 g/10a): 4; Herbicidal Effet ooinutade ([11]; 8 g/10a): 5; Herbicidal Effet noasagao ([12]; 4 g/10a): 4; Herbicidal Effet noasagao ([12]; 8 g/10a): 4; Herbicidal Effect tamagayatsuri ([13]; 6.25 g/10a): 4; Herbicidal Effect tamagayatsuri ([13]; 12.5 g/10a): 4; Herbicidal Effect mehishiba ([14]; 40 g/10a): 1; Herbicidal Effect mehishiba ([14]; 80 g/10a): 1
